From US20100261682A1, “Method and Means for the Treatment of Cachexia” (Bioneris AB, priority 2007, published 2010)

Legend:
[1] = tested on: 20S proteasome; assay: 20S proteasome 'chymotrypsin-like' enzyme activity in gastrocnemius muscle; assay type: in vivo, NMRI mice; settings: 40 mg/kg s.c., 3 times per day; after 4 days treatment
Protocol: (§1) Administration of alpha-trinositol. Mice (n=6) bearing the MAC16 tumour were treated with AT (40 mg/kg) s.c., 3 times per day, for 5 days, while a control group received PBS. Protein synthesis and degradation were determined by the incorporation and release of L-[2,6-^3H]phenylalanine, as described in Smith et al., Cancer Res., 2005; 65:277-83. On the fourth day of treatment half of the group administered 0.4 mmol/L L-[2,6-^3H]phenylalanine in PBS (100 μl) by i.p. administration.
Determination of proteasome activity The activity of the 20S proteasome was determined as the ‘chymotrypsin-like’ enzyme activity, the predominant proteolytic activity of the β5 subunits of the proteasome. Gastrocnemius muscles were rinsed with ice-cold PBS and homogenised in 20 mmol/L Tris-HCl (pH 7.5), 2 mmol/L ATP, 5 mmol/L MgCl2 and 1 mmol/L DTT followed by sonication. The sonicate was centrifuged for 10 minutes at 18,000×g at 4° C., and enzyme activity in the supernatant was determined by the method of Orino et al., FEBS Lett., 1991; 284:206-10, by determining the release of amino methyl coumarin (AMC) from the fluorogenic substrate LLVY-AMC. Activity was measured in the absence and presence of the specific proteasome inhibitor lactacystin (10 mmoles/L). Only lactacystin suppressible activity was considered to be proteasome specific.

[2] = tested on: p42; assay: Western blot of gastrocnemius muscle: p42; assay type: in vivo, NMRI mice; settings: 40 mg/kg s.c., 3 times per day
Protocol: as §1
(§2) Western blot analysis Gastrocnemius muscle (10 mg) was homogenised in Phosphosafe™ Extraction Reagent (500 μl) and centrifuged at 15000 g for 15 min. Samples of the cytosolic proteins (5 μg) were loaded on either a 10% (mTOR, myosin, eIF4E and eIF4G) 12% (PKR, eIF2α and actin) or 15% (4E-BP1) sodium dodecylsulphate-polyacrylamide gel (SDS-PAGE) and electrophoresed at 180 V for approximately 1 h. The extent of phosphorylation of 4E-BP1, and the association of 4E-BP1 and eIF4G with eIF4E was determined by Western blotting when eIF4E was extracted from the muscle samples by m^7GTP-Sepharose 4B-affinity binding, as previously described Eley ey al., Biochem J., 2007; 407:113-20, by loading 20 μg of protein. […] Blots were scanned by a densitometer to quantify differences.

[3] = tested on: cachectic MAC16 mice; assay: Body composition of cachectic MAC16 mice after alpha-trinositol treatment (Example 2); assay type: in vivo, NMRI mice; settings: for Body composition: Fat / Body composition: Lean mass / Body composition: Water: mean ± SD
Text: Animals. Pure strain male NMRI mice (average body weight 25 g) were transplanted with fragments of the MAC16 tumour subcutaneously into the flank by means of a trochar, selected from donor animals with established weight loss (Bibby M C et al., Characterization of transplantable adenocarcinoma in the mouse colon producing cachexia in the recipient animals. J Natl Cancer Inst 78 (1987) 539-546). Transplanted animals were given a rat and mouse breeding diet (Special Diet Services, Witham, UK) and water at lib. Weight loss was evident 10 to 12 days after tumour implantation. Just prior to the development of weight loss 24 animals were randomized into four groups (I-IV) of six animals each.
Administration of alpha-trinositol. A first experiment was started when the animals had lost about 5% of body weight. Aliquots (2.5 μl, Group I; 5 μl, Group II; 10 μl, Group III) of alpha-trinositol stock solution corresponding to doses of 10 mg/kg, 20 mg/kg, and 40 mg/kg for a 25 g animal were administered subcutaneously three times per day at 8.00, 12.00 and 16.00 hrs. The fourth group (Group IV; control) was given an intravenous injection of 10 μl of water. Body weight (FIG. 1), tumour volume (FIG. 2), and water and food intake were determined daily after the last injection.
At the end of the treatment described in Example 1 the mice were sacrificed, and their body composition was analyzed. […] The reduction of lean body mass is normally observed in cachectic patients and is a significant cause of morbidity. No significant change in water content was observed.

[4] = tested on: PIF-induced chymotrypsin-like enzyme activity (proteasome) in C2C12 myotubes; assay: PIF-induced chymotrypsin-like enzyme activity in C2C12 myotubes; assay type: cell-based, murine; settings: AT 100 μM, 4.2 nM PIF
Text: Protein degradation induced by PIF is mediated through up-regulation of the ubiquitin-proteasome pathway (Tisdale et al., 2004, Br. J. Cancer). […] A hexanoyl ester of AT (lipid soluble AT) has been produced as a slow release form, after hydrolysis by esterase.

[5] = tested on: 20S proteasome α-subunits; assay: Western blot of gastrocnemius muscle: 20S proteasome α-subunits; assay type: in vivo, NMRI mice; settings: 40 mg/kg s.c., 3 times per day
Protocol: as §1, §2

[6] = tested on: MAC16 tumour-bearing mice; assay: Body weight and gastrocnemius muscle weight in MAC16 tumour-bearing mice (Example 4); assay type: in vivo, NMRI mice; settings: 40 mg/kg s.c., 3 times per day, 5 days
[7] = alpha-Trinositol 10 (mg/ml as printed)
[8] = alpha-Trinositol 20 (mg/ml as printed)
[9] = alpha-Trinositol 40 (mg/ml as printed)

In the case of `O=P(O)(O)O[C@@H]1[C@H](OP(=O)(O)O)[C@H](O)[C@@H](O)[C@H](O)[C@H]1OP(=O)(O)O` [alpha-trinositol, 1-D-Myo-inositol 1,2,6-triphosphate], the “chymotrypsin activity (20S proteasome activity) in gastrocnemius muscle” value [1] was “reduced down to levels found in normal non-tumour bearing mice”, the “expression of p42 in gastrocnemius muscle” value [2] was “down-regulates” and the “absolute fat change from controls” value [3, 7] was −19 % by weight. For the same molecule, the “absolute lean mass change from controls” value [3, 7] was “+11 % by weight”, the “Body composition: Fat” value ([3]; alpha-Trinositol 10 (mg/ml as printed), control 6.1 ± 2.1) was 4.9 ± 2.3 % by weight and the “Body composition: Lean mass” value ([3]; alpha-Trinositol 10 (mg/ml as printed), control 26.1 ± 1.6) was 27.1 ± 3.0 % by weight. For the same molecule, the “Body composition: Water” value ([3]; alpha-Trinositol 10 (mg/ml as printed), control 67.8 ± 1.2) was 68.0 ± 2.0 % by weight, the “absolute fat change from controls” value [3, 8] was −46 % by weight and the “absolute lean mass change from controls” value [3, 8] was “+15 % by weight”. The “Body composition: Fat” value [3, 8] was 3.3 ± 0.5 % by weight, the “Body composition: Lean mass” value [3, 8] was 28.6 ± 1.7 % by weight and the “Body composition: Water” value [3, 8] was 68.1 ± 1.7 % by weight. The “absolute fat change from controls” value [3, 9] was −39 % by weight, the “absolute lean mass change from controls” value [3, 9] was “+25 % by weight” and the “Body composition: Fat” value [3, 9] was 3.7 ± 1.9 % by weight. For the same molecule, the “Body composition: Lean mass” value [3, 9] was 30.7 ± 2.5 % by weight, the “Body composition: Water” value [3, 9] was 65.6 ± 1.7 % by weight and the “effect on PIF-induced chymotrypsin-like enzyme activity” value [4] was “completely attenuated”. The “expression of the 20S proteasome α-subunits in gastrocnemius muscle” value [5] was “down-regulates”, the “gastrocnemius muscle weight compared to the control” value [6] was “significantly higher” and the “weight loss compared to the control group” value [6] was “significantly lower”.
